Data as given in patent US20250134847A1, “COMBINATION THERAPIES” (QBIOTICS PTY LTD, priority 2022, published 2025).
Like-named read-outs stand apart in the source and are kept apart here.

Assays:
LLC tumours = assay: Lewis Lung Carcinoma (LLC) tumours in C57BL/6 mice, intratumoural Compound 1 and intraperitoneal doxorubicin; format: in vivo, mouse
Procedure: (§3) B16-F10-OVA (B16-F10 mouse melanoma cell line overexpressing chicken ovalbumin) were cultured in RPMI-1640 supplemented with 10% FCS (complete medium) and 3 mM HEPES. LLC (Lewis Lung Carcinoma) cells were cultured in DMEM (Gibco) supplemented with 10% FCS. Both cell lines were incubated at 37° C., 5% CO2 in a humidified incubator.
(§4) C57BL/6 mice were purchased from the Animal Resources Centre (ARC), Murdoch, Western Australia. […] All mice were housed in a specific pathogen free (SPF) facility, with 12 hours light/dark cycle and continual access to food and water.
C57BL/6 mice (6-7 weeks old) were injected subcutaneously (s.c.) on both flanks with B16-F10-OVA mouse melanoma cells (2×10^5 cells per site in 50 μl) or LLC mouse lung cancer cells (5×10^5 cells per site in 50 μl). Tumours were allowed to develop to approximately 75-100 mm^3. Mice were then treated intra-peritoneally with doxorubicin in saline (3 mg/kg; 60 μg/dose, saline for vehicle). […] Treatment with the chemotherapy agent was repeated after 7 and 14 days. […]
Volumes were recorded using digital calipers and expressed as mm^3 according to the formula A×b×b×0.5 where A=length and b=measured breadth of the tumour. Mice were also assessed for clinical signs of distress according to an approved clinical score sheet during the experiment. […]

SCC-15 cells = details: for Combination Index at IC50, Irradiation: with irradiation; for relationship by Chou-Talalay combination index method: Compound 1 with irradiation
Procedure: Cells were seeded at 3000 cells/well in 100 μL of medium in flat bottom 96 well cell culture plates (Corning Incorporated, New York, USA). Cells were incubated for 24 hr to ensure plate adherence prior to treatment.
One in two dilutions were then performed down the plate leaving the last row as an untreated control.
Each cell line was treated with each agent in triplicate with data being averaged across the three trials.
For single agent experiments, wells included no treatment and ethanol treatment controls. Following treatment, cells were incubated for 4 hours prior to washing with PBS and replacement of medium.
Following incubation of treated cells for 5-7 days, cell survival was determined using a sulforhodamine B (SRB) proliferation assay. This assay quantitatively assesses the degree of protein staining as a surrogate marker for cellular growth. Cells were washed with PBS and subsequently fixed with methylated spirits (Chem Supply, South Australia) for at least five minutes. Following fixation, the methylated spirits was removed and cells again washed gently with water prior to staining with 50 μL/well of 0.4% SRB solution (Sigma Aldrich) in 1% acetic acid for sixty minutes. This solution was tipped off and cells quickly washed twice with 1% acetic acid. The assay was completed with administration of 100 μL/well of 10 mM Tris base (unbuffered, pH >9, Invitrogen). Absorbance was measured on an enzyme-linked immunosorbent assay (ELISA) reader (VERSA max microplate reader, Molecular Devices, California, USA) at 564 nm and a five second agitation. Cell survival was graphed as a percentage of control well absorbance against dose.
Analysis was performed using the software program Combusyn.
As for the single agent experimentation, the cell lines were maintained in culture before their eventual transfer to 96-well plates. […] Cell survival was determined relative to no-treatment controls after 7 days of incubation using SRB assays.

SCC-15 tumours [1] = details: Xenogeneic Model
Procedure: (§5) Prior to inoculation of subject mice, the cancer cells were seeded to T175 tissue culture flasks (Thermo Scientific) to increase cell numbers. Once 70-80% confluent, cells were trypsinized and resuspended in RPMI-1640 media for harvesting and cell count using a haemocytometer. The cell volume was centrifuged and the pellet reconstituted in RPMI-1640 media to a volume sufficient for the number of inoculations required at 100 μL per injection with two sites per mouse subject. The cell suspension was kept on ice and transferred to the animal facility for injection into the subjects.
The BALB/c Foxn1^nu mice were obtained from the Animal Resource Centre, Western Australia. The C3H/HeNCr mice were bred at the QIMR Animal Facility.
C3H/HeNCr mice were shaved (Wahl, Illinois, USA) one day before inoculation. Whilst restrained subjects were inoculated on the hind quarter bilaterally by injecting 100 μL of the appropriate cell suspension into the subcutaneous space with a Terumo® (Tokyo, Japan) 27G×½″ needle. Subjects were ear tagged for identification. Following inoculation, mice were monitored twice weekly for tumour development and well-being and once tumours developed, the subjects were monitored daily.
(§6) A cohort of thirty BALB/c Foxn1^nu and twenty-one C3H/HeNCr mice, each with two tumours per mouse were divided into six experimental groups as set out in Table 2.
(§7) Weight was recorded for each subject prior to and post-treatment, and at the time of culling. The width and length of each tumour was measured using 150 mm digital Vernier callipers (Kinchrome, Qld, AU) and individual tumour volume (mm^3) calculated using the formula:
IP injections were performed by first sterilizing the anterior abdominal wall of the subject with an alcohol swab before the dorsal skin of the subject was scruffed and the subject inverted with head down. A 29 G needle with the bevel upwards is used to inject into the lower right abdominal quadrant. […]
Tumour volume was recorded as above. […]
Data was analysed with Microsoft Excel and Prism 7 to calculate average tumour volumes and standard deviations (SD). […]

B16-F10-OVA tumours = assay: B16-F10-OVA mouse melanoma tumours in C57BL/6 mice, intratumoural Compound 1 and intraperitoneal doxorubicin
Procedure: as §3, §4
C57BL/6 mice (6-7 weeks old) were injected subcutaneously (s.c.) on both flanks with B16-F10-OVA mouse melanoma cells (2×10^5 cells per site in 50 μl) or LLC mouse lung cancer cells (5×10^5 cells per site in 50 μl). Tumours were allowed to develop to approximately 75-100 mm^3. Mice were then treated intra-peritoneally with doxorubicin in saline (3 mg/kg; 60 μg/dose, saline for vehicle). […] Treatment with the chemotherapy agent was repeated after 7 and 14 days. For the B16-F10-OVA model, 5 mice per group (10 tumours) were used in duplicate experiments (total of 10 mice per group, 20 tumours in total from both experiments). For the LLC tumour model, 5 mice per group were used in a single experiment (10 tumours).
Volumes were recorded using digital calipers and expressed as mm^3 according to the formula A×b×b×0.5 where A=length and b=measured breadth of the tumour. Mice were also assessed for clinical signs of distress according to an approved clinical score sheet during the experiment. The experiment ceased when an unacceptable clinical score (>6) was reached, or the cumulative tumour burden of the mouse exceeded 1,000 mm^3. […] Mice were humanely euthanized by CO2 asphyxiation at the end of the experiment.

A431 cells = details: for Combination Index at IC50, Irradiation: with irradiation
MC38 tumours = MC38 tumours in C57BL/6 syngeneic mouse model, intratumoural Compound 1 and external beam irradiation; format: in vivo; details: for Median Survival: Syngeneic Model
Procedure: The MC38 cell line is a murine colonic adenocarcinoma cell line derived from the C57BL/6 mouse (Kerafast, ENH204).
(§1) Subjects were ear tagged for identification.
Adequate positioning was ensured with the irradiator (Gammacel 40 Extractor) by sedating each mouse with a combination solution of Ketamine (80 mg/kg of 8 mg/mL solution, Ceva, NSW, AU) and Midazolam (4 mg/kg of 0.4 mg/mL solution, Sandoz, Hozkirchen, Germany) via intraperitoneal injection. Mice were double contained during transfer to and from the irradiator. During irradiation, mice were restrained with lead shielding to prevent exposure to sites other than the flanks where the tumours were located. […] On completion of treatment, mice were warmed with a heating blanket, placed on their side, and observed until ambulant.
(§2) Tumour volume was recorded as above.

UV-13-1 tumours = details: for Median Survival: Syngeneic Model
Procedure: as §5
C3H/HeNCr mice were shaved (Wahl, Illinois, USA) one day before inoculation. Whilst restrained subjects were inoculated on the hind quarter bilaterally by injecting 100 μL of the appropriate cell suspension into the subcutaneous space with a Terumo® (Tokyo, Japan) 27G×½″ needle. […] Following inoculation, mice were monitored twice weekly for tumour development and well-being and once tumours developed, the subjects were monitored daily.
as §6, §7
IP injections were performed by first sterilizing the anterior abdominal wall of the subject with an alcohol swab before the dorsal skin of the subject was scruffed and the subject inverted with head down. A 29 G needle with the bevel upwards is used to inject into the lower right abdominal quadrant.
On reaching a volume of 70-100 mm^3, tumours of the test subjects were injected IT with 50 μL of either 5 μg or 10 μg of Compound 1 or for control subjects 50 μL of 40% propylene glycol (PG).
The subjects were euthanized by CO2 inhalation when total tumour burden reached 1000 mm^3 per mouse, if ill, and on completion of the experiment.
Data was analysed with Microsoft Excel and Prism 7 to calculate average tumour volumes and standard deviations (SD). Individual and averaged tumour volumes and Kaplan-Meier survival curves were graphed relative to time of treatment.
C3H/HeNCr mouse model inoculated with UV-13-1 tumours is a syngeneic model where the mouse is immunocompetent and the influence of the immune system on treatment may be assessed. These mice were not culled at 60 days but were periodically (weekly) monitored up to 200 days for recurrence.

SCC-15 tumours [2] = assay: SCC-15 tumours in BALB/c Foxn1^nu xenogeneic mouse model, intratumoural Compound 1 and external beam irradiation; format: in vivo; details: for Median Survival: Xenogeneic Model
Procedure: as §1
Adequate positioning was ensured with the irradiator (Gammacel 40 Extractor) by sedating each mouse with a combination solution of Ketamine (80 mg/kg of 8 mg/mL solution, Ceva, NSW, AU) and Midazolam (4 mg/kg of 0.4 mg/mL solution, Sandoz, Hozkirchen, Germany) via intraperitoneal injection. Mice were double contained during transfer to and from the irradiator. During irradiation, mice were restrained with lead shielding to prevent exposure to sites other than the flanks where the tumours were located.
as §2

[3] = 5 μg or 10 μg Compound 1, p<0.0001
[4] = IP N/Saline + IT 5 μg Compound 1
[5] = IP N/Saline + IT 10 μg Compound 1
[6] = 5 Gy irradiation + IT 7.5 μg Compound 1
[7] = 10 Gy irradiation + IT 7.5 μg Compound 1
[8] = syngeneic model, 5 Gy irradiation + 7.5 μg IT Compound 1
[9] = syngeneic model, 10 Gy irradiation + 7.5 μg IT Compound 1
[10] = intraperitoneal doxorubicin 3 mg/kg + intralesional 40% PG/30 mM acetate
[11] = IP cisplatin 2.5 mg/kg + IT 40% PG

For `C/C=C(\C)C(=O)O[C@@H]1[C@@H](C)[C@@]2(O)[C@H]([C@@H]3C(C)(C)[C@]13OC(=O)[C@@H](C)CC)[C@@H]1O[C@]1(CO)[C@@H](O)[C@]1(O)C(=O)C(C)=C[C@H]12` [Compound 1, 12-tigloyl-13-(2-methylbutanoyl)-6,7-epoxy-4,5,9,12,13,20-hexahydroxy-1-tiglien-3-one], the “tumour growth and overall survival compared to vehicle alone” value (LLC tumours; [3]) was “slowed tumour growth and prolonged overall survival”, the “Combination Index at IC50, Irradiation” value (SCC-15 cells; Compound 1 concentration 2 μM) was 0.15 and the “Combination Index at IC50, Irradiation” value (SCC-15 cells; Compound 1 concentration 20 μM) was 2.1. For the same compound, the “Combination Index at IC50, Irradiation” value (SCC-15 cells; Compound 1 concentration 40 μM) was 1.75, the “Combination Index at IC50, Irradiation” value (SCC-15 cells; Compound 1 concentration 60 μM) was 1.34 and the “relationship by Chou-Talalay combination index method” value (SCC-15 cells; at low concentrations) was “synergistic”. The “relationship by Chou-Talalay combination index method” value (SCC-15 cells; some combination indices (CI >1)) was “consistent with antagonism”, the cell survival (SCC-15 cells; exposure to Compound 1 and irradiation) was “pronounced fall in cell survival” and the “Median Survival” value (SCC-15 tumours [1]; [4]) was 11 days. The “Median Survival” value (SCC-15 tumours [1]; [5]) was 13 days, the “tumour growth and overall survival compared to vehicle alone” value (B16-F10-OVA tumours; [3]) was “slowed tumour growth and prolonged overall survival” and the tumours completely ablated (B16-F10-OVA tumours; saline/10 μg Compound 1 group) was 4/20. For the same compound, the “Combination Index at IC50, Irradiation” value (A431 cells; Compound 1 concentration 10 μM) was 0.33, the “Combination Index at IC50, Irradiation” value (A431 cells; Compound 1 concentration 50 μM) was 0.41 and the “Combination Index at IC50, Irradiation” value (A431 cells; Compound 1 concentration 100 μM) was 0.12. The “Combination Index at IC50, Irradiation” value (A431 cells; Compound 1 concentration 200 μM) was 0.08, the “cell death compared to Compound 1 alone” value (A431 cells; Compound 1 with any concentration of irradiation) was “significant increase in cell death” and the “relationship by Chou-Talalay combination index method” value (A431 cells; Compound 1 with irradiation) was “synergistic”. For the same compound, the “Median Survival” value (MC38 tumours; 0 Gy + IT 7.5 μg Compound 1) was 13 days, the “Median Survival” value (MC38 tumours; [6]) was 31 days and the “Median Survival” value (MC38 tumours; [7]) was 47 days. For the same compound, the cure rate (MC38 tumours; syngeneic model, 7.5 μg IT Compound 1 alone) was 70%, the “survival at experiment end” value (MC38 tumours; [8]) was 20% and the “tumours that remained cured at 200 days following treatment” value (MC38 tumours; [8]) was “two”. For the same compound, the “survival at experiment end” value (MC38 tumours; [9]) was 20%, the “tumours that remained cured at 200 days following treatment” value (MC38 tumours; [9]) was “two” and the “cure rate (proportion of tumours responding completely)” value (MC38 tumours; syngeneic model, Compound 1 and 5 Gy irradiation) was 100%. The “cure rate (proportion of tumours responding completely)” value (MC38 tumours; syngeneic model, Compound 1 and 10 Gy irradiation) was 100%, the “duration of treatment response” value (MC38 tumours; syngeneic model, Compound 1 monotherapy) was 6.2 days and the “duration of treatment response” value (MC38 tumours; syngeneic model, Compound 1 with 5 Gy irradiation) was 64.6 days. For the same compound, the “duration of treatment response” value (MC38 tumours; syngeneic model, Compound 1 with 10 Gy irradiation) was 65.9 days, the “improvement of duration of treatment response over monotherapy” value (MC38 tumours; syngeneic model, Compound 1 with irradiation, either 5 Gy or 10 Gy) was at least 8.7 × and the “tumour response (individual and average tumour volumes)” value (MC38 tumours; syngeneic model, combinations of Compound 1 and irradiation) was “considerably improved tumour response”. For the same compound, the “Median Survival” value (UV-13-1 tumours; [4]) was 16.5 days, the “Median Survival” value (UV-13-1 tumours; [5]) was 23.5 days and the “efficacy versus IP cisplatin alone” value (UV-13-1 tumours; syngeneic model, 5 μg and 10 μg Compound 1 IT with saline) was “more efficacious than IP cisplatin alone”. The “Median Survival” value (SCC-15 tumours [2]; 0 Gy + IT 7.5 μg Compound 1) was 22 days, the “Median Survival” value (SCC-15 tumours [2]; [6]) was 32 days and the “Median Survival” value (SCC-15 tumours [2]; [7]) was 166 days. For the same compound, the cure rate (SCC-15 tumours [2]; xenogeneic model, 7.5 μg IT Compound 1 alone) was 70%, the “survival rate at 200 days” value (SCC-15 tumours [2]; xenogeneic model, 5 Gy irradiation + 7.5 μg IT Compound 1) was 20% and the “survival rate at 200 days” value (SCC-15 tumours [2]; xenogeneic model, 10 Gy irradiation + 7.5 μg IT Compound 1) was 50%. The “cure rate (proportion of tumours responding completely)” value (SCC-15 tumours [2]; xenogeneic model, Compound 1 and 5 Gy irradiation) was 80%, the “cure rate (proportion of tumours responding completely)” value (SCC-15 tumours [2]; xenogeneic model, Compound 1 and 10 Gy irradiation) was 70% and the “tumour size response compared to other combinations” value (SCC-15 tumours [2]; xenogeneic model, Compound 1 combined with irradiation) was “significant and durable reduction in tumour size”. The “duration of treatment response” value (SCC-15 tumours [2]; xenogeneic model, Compound 1 monotherapy) was 11 days, the “duration of treatment response” value (SCC-15 tumours [2]; xenogeneic model, Compound 1 with 5 Gy irradiation) was 51.5 days and the “duration of treatment response” value (SCC-15 tumours [2]; xenogeneic model, Compound 1 with 10 Gy irradiation) was 111 days. The “improvement of duration of treatment response over monotherapy” value (SCC-15 tumours [2]; xenogeneic model, Compound 1 with irradiation, either 5 Gy or 10 Gy) was “at least 4.6 ×”.
For `COc1cccc2c1C(=O)c1c(O)c3c(c(O)c1C2=O)C[C@@](O)(C(=O)CO)C[C@@H]3O[C@H]1C[C@H](N)[C@H](O)[C@H](C)O1` [doxorubicin, reference compound], the “effect on tumour growth and survival” value (LLC tumours; [10]) was “minor effect on slowing tumour growth and prolonging survival” and the “effect on tumour growth” value (B16-F10-OVA tumours; [10]) was “no effect on tumour growth”.
`N.N.[Cl][Pt][Cl]` [cisplatin, reference compound] was tested, and the “Median Survival” value (SCC-15 tumours [1]; [11]) was 11 days and the “Median Survival” value (UV-13-1 tumours; [11]) was 12 days.
